Test [1] addresses T1, Discoidin domain-containing receptor 2 (Homo sapiens) (UniProt Q16832).
T1 sequence (whole entry): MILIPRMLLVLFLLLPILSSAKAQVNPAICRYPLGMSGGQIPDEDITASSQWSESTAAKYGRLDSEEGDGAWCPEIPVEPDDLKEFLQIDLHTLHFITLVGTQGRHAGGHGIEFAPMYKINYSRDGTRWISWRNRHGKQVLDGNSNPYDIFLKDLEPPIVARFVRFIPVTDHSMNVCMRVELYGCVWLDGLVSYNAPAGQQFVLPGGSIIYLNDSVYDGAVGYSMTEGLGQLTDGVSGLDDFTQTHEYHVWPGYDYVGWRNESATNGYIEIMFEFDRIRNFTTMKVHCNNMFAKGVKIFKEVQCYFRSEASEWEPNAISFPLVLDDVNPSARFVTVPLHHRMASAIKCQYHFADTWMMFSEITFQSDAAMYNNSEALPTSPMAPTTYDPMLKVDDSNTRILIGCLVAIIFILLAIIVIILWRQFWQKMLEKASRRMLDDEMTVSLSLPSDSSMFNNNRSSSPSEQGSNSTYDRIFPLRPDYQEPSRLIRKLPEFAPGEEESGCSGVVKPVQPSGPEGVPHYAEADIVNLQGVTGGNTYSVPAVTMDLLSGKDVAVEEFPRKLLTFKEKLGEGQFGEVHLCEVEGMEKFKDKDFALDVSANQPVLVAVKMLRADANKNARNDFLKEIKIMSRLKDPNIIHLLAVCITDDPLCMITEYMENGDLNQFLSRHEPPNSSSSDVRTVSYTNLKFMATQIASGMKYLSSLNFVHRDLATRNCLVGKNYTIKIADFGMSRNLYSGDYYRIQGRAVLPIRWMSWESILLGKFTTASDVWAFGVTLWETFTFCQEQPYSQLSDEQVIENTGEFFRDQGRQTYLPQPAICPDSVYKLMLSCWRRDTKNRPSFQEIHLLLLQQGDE
In words: Inhibition of DDR2 (unknown origin) at 10 uM after 120 mins P33 radiolabeled kinase activity assay.

In test [2] the target is Serine/threonine-protein kinase 10 (Homo sapiens) (UniProt O94804). In words: Inhibition of LOK (unknown origin) at 10 uM after 120 mins P33 radiolabeled kinase activity assay.
The target of test [3] is Maternal embryonic leucine zipper kinase (Homo sapiens) (UniProt Q14680). In words: Inhibition of MELK (unknown origin) at 10 uM after 120 mins P33 radiolabeled kinase activity assay.
Test [4] concerns the target Cyclin-dependent kinase 2/cyclin A (Homo sapiens) (UniProt P24941+P20248+P78396). In words: Inhibition of CDK2/cyclin A (unknown origin) at 10 uM after 120 mins P33 radiolabeled kinase activity assay. It counts as protein-complex assay.
The target in test [5] is Serine/threonine-protein kinase PAK 4 (Homo sapiens) (UniProt O96013). In words: Inhibition of PAK4 (unknown origin) at 10 uM after 120 mins P33 radiolabeled kinase activity assay.
The target of test [6] is T2, Ephrin type-A receptor 8 (Homo sapiens) (UniProt P29322).
T2 sequence (whole entry): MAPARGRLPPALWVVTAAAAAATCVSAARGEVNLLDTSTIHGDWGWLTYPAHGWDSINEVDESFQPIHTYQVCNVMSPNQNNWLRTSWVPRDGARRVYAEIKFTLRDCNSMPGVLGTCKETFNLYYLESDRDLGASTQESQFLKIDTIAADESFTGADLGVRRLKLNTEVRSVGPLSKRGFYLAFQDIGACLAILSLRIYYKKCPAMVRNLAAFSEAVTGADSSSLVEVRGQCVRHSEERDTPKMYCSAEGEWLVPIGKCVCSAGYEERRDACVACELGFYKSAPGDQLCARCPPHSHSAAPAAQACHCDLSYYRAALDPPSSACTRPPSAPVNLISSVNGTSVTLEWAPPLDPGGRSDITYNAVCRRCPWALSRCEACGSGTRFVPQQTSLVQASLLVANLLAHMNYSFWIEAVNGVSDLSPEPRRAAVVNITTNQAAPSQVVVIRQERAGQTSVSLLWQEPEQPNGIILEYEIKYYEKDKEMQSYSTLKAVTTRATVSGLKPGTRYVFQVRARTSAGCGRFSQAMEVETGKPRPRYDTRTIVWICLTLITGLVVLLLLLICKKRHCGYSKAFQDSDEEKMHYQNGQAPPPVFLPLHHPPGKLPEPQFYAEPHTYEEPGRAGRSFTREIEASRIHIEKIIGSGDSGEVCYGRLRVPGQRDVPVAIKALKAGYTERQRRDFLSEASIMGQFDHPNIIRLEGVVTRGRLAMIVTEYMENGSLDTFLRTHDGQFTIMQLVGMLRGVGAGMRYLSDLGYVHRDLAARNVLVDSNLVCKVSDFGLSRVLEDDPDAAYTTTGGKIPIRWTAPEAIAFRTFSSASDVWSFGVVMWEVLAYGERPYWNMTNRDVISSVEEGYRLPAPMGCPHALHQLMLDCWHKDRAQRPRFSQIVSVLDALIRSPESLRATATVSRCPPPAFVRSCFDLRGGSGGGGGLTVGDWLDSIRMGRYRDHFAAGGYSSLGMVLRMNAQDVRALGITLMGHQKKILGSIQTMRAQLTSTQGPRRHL
As to the kind of experiment: Inhibition of EPHA8 (unknown origin) at 10 uM after 120 mins P33 radiolabeled kinase activity assay.

Test [7] concerns the target T3, Mitogen-activated protein kinase 13 (Homo sapiens) (UniProt O15264).
T3 sequence (whole entry): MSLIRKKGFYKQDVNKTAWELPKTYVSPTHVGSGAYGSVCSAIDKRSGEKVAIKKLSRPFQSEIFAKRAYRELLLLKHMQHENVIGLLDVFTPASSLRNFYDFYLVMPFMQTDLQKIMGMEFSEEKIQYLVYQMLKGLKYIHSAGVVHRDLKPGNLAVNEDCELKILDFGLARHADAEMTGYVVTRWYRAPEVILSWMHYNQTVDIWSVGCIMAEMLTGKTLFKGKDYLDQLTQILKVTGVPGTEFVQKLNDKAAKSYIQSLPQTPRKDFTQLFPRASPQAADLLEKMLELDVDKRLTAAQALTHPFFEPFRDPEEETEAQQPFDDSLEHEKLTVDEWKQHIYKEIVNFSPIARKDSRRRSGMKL
In words: Inhibition of P38delta (unknown origin) at 10 uM after 120 mins P33 radiolabeled kinase activity assay.

Data on three compounds can be found in ChEMBL document CHEMBL3627608, “Crystal structures of human RIP2 kinase catalytic domain complexed with ATP-competitive inhibitors: Foundations for understanding inhibitor selectivity” (Bioorg Med Chem, 2015).

Serine/threonine-protein kinase PAK 4 (Homo sapiens), sequence (O96013 whole entry, looked up): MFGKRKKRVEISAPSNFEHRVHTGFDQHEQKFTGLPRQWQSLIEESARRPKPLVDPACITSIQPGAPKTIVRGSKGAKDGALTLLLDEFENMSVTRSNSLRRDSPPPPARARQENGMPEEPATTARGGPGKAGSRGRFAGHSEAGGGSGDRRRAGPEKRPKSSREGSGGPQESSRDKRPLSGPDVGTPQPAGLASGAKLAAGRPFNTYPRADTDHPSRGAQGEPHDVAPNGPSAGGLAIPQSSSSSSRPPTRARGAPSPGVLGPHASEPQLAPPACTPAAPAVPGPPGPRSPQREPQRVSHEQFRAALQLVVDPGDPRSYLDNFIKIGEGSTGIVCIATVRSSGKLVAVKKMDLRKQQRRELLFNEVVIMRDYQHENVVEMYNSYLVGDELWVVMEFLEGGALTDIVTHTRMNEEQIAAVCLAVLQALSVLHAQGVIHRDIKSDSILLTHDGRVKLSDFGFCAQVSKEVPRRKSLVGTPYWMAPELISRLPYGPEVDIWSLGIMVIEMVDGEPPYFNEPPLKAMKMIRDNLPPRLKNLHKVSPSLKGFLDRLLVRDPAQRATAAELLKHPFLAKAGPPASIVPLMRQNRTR
Maternal embryonic leucine zipper kinase (Homo sapiens), sequence (Q14680 whole entry, looked up): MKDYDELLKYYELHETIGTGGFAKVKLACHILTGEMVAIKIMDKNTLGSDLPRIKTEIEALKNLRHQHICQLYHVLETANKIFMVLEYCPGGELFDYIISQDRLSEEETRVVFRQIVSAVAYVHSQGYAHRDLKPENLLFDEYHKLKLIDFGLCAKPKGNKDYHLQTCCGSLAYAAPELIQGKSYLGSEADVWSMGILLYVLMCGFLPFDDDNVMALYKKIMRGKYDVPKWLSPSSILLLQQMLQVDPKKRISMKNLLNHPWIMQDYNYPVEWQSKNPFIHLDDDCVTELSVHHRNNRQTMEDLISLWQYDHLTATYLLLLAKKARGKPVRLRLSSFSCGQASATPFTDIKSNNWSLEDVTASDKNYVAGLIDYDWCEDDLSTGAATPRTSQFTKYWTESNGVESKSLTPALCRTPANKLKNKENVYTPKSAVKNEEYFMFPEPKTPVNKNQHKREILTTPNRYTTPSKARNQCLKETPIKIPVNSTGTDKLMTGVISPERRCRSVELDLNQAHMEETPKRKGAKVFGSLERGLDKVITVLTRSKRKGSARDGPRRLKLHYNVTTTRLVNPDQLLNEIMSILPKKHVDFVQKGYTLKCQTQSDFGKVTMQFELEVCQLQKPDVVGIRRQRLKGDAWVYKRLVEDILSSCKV
Serine/threonine-protein kinase 10 (Homo sapiens), sequence (O94804 whole entry, looked up): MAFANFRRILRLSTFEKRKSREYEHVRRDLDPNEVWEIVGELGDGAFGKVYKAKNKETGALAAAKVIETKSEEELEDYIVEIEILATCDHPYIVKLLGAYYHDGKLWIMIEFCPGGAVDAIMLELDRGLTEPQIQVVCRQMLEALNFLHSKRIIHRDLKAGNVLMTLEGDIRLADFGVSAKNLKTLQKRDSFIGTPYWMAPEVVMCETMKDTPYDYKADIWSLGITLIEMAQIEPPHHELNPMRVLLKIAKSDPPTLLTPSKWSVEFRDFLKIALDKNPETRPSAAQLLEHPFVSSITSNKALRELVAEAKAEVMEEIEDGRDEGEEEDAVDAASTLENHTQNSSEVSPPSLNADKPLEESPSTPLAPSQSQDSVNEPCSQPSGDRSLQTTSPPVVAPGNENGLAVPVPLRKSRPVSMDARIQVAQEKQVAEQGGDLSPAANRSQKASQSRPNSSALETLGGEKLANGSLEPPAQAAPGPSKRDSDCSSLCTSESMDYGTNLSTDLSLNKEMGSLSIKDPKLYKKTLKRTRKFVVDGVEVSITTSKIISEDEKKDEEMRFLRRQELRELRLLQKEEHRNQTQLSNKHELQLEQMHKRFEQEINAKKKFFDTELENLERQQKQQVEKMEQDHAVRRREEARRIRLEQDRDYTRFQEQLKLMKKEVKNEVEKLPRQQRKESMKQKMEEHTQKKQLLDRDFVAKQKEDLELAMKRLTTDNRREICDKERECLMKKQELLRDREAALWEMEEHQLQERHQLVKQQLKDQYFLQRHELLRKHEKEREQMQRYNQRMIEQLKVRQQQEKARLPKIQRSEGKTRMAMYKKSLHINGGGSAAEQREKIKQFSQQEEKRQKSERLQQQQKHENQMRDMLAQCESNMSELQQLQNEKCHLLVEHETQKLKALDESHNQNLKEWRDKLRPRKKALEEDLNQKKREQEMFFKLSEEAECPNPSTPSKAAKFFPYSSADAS

With `CS(=O)(=O)c1cccc(Nc2nccc(-c3sc(N4CCOCC4)nc3-c3cccc(NS(=O)(=O)c4c(F)cccc4F)c3)n2)c1`, the inhibition in test [1] stood at 99%; in test [2], 74.8%; in test [3], 69.3%; in test [4] it was 62.9%; in test [5], 4.24%; in test [6] it was 74.6%. Moreover, the inhibition in test [7] came to 2%.

For the compound `CC(C)(C)c1cc(NC(=O)Nc2ccc(Oc3ccncc3)cc2)no1`, the inhibition in test [1] is 98%; in test [2] it was 92.8%; in test [3], -0.03%; in test [4] it was 6.27%; in test [5], 5.19%; in test [6], 80.5%. Moreover, the inhibition in test [7] came to 93.4%.

Regarding `COCCNC(=O)c1ccc2c(c1)nc(-c1cnc(-c3ccc(Cl)cc3)[nH]1)n2CCOC`, the inhibition in test [1] was 28.2%; in test [2] it was 28.4%; in test [3] it was 8.47%; in test [4], -6.73%; in test [5], 5.75%; in test [6], 12.2%. Further, the inhibition in test [7] was determined as 3.01%.

Broadly, the inhibition is the drop in the measured response relative to a control, in per cent.
